The values that follow come from publication PMC12307932, “Convergent evolution of distinct D-ribulose utilisation pathways in attaching and effacing pathogens” (Nature Communications, 2025).

Structures are written as SMILES. Where two headings read alike, the source gives them in different places.

The target in this assay is T1, AauA (Escherichia coli, UniProt Q8X6A6).
T1 construct: gene ECs_0374
As to the kind of experiment: isothermal titration calorimetry. The format is binding. (In ITC the heat of successive injections is recorded.)

T1 sequence (Q8X6A6 29-328 limits assumed): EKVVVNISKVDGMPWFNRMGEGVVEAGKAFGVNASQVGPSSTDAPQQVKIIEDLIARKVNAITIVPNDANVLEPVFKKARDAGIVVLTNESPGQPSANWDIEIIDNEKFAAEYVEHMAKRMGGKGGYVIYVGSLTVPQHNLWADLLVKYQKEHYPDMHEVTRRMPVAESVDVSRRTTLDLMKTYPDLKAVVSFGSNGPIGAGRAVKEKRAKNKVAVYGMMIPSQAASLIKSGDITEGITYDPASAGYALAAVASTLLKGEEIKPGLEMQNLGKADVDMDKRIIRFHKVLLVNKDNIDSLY

With `O=C(CO)[C@H](O)[C@H](O)CO` [D-ribulose], the Kd (usually the free concentration of one partner at which half of the binding sites on the other are occupied at equilibrium, for simple one-to-one binding) was 1.98 ± 0.3 µM.

`OC1OC[C@H](O)[C@H](O)[C@H]1O` (some centres unmarked) [ʟ-arabinose] yielded an equilibrium dissociation constant (Kd) (50 mM HEPES, 150 mM NaCl, pH 7.0, 25 °C, 70 µM AauA, single-site model) of 598 ± 132 µM.
